# Results taken from publication PMC11277489, “Novel Piperazine Derivatives of Vindoline as Anticancer Agents” (International Journal of Molecular Sciences, 2024).
# Like-named read-outs stand apart in the source and are kept apart here.
# What was measured:
# K-562 = assay: NCI60 one-dose screen (10 μM), Leukemia; format: cell-based; details: Homo sapiens
# OVCAR-8 = assay: NCI60 one-dose screen (10 μM), Ovarian Cancer; format: cell-based; details: Homo sapiens
# SW-620 = assay: NCI60 one-dose screen (10 μM), Colon Cancer; format: cell-based; details: Homo sapiens
# A498 = assay: NCI60 one-dose screen (10 μM), Renal Cancer; format: cell-based; details: Homo sapiens
# SF-539 = assay: NCI60 one-dose screen (10 μM), CNS Cancer; format: cell-based, human; details: Homo sapiens
# U251 = assay: NCI60 one-dose screen (10 μM), CNS Cancer; format: cell-based; details: Homo sapiens
# HL-60(TB) = assay: NCI60 one-dose screen (10 μM), Leukemia; format: cell-based; details: Homo sapiens
# NCI-H522 = assay: NCI60 one-dose screen (10 μM), Non-small Cell Lung Cancer; format: cell-based; details: Homo sapiens
# HCC-2998 = assay: NCI60 one-dose screen (10 μM), Colon Cancer; format: cell-based; details: Homo sapiens
# HCT-116 = assay: NCI60 one-dose screen (10 μM), Colon Cancer; format: cell-based; details: Homo sapiens
# SNB-19 = assay: NCI60 one-dose screen (10 μM), CNS Cancer; format: cell-based; details: Homo sapiens
# TK-10 = assay: NCI60 one-dose screen (10 μM), Renal Cancer; format: cell-based; details: Homo sapiens
# NCI-H460 = assay: NCI60 one-dose screen (10 μM), Non-small Cell Lung Cancer; format: cell-based; details: Homo sapiens
# 786–0 = assay: NCI60 one-dose screen (10 μM), Renal Cancer; format: cell-based; details: Homo sapiens
# NCI-H23 = assay: NCI60 one-dose screen (10 μM), Non-small Cell Lung Cancer; format: cell-based; details: Homo sapiens
# UACC-257 = assay: NCI60 one-dose screen (10 μM), Melanoma; format: cell-based; details: Homo sapiens
# MCF7 = assay: NCI60 one-dose screen (10 μM), Breast Cancer; format: cell-based; details: Homo sapiens
# SK-MEL-28 = assay: NCI60 one-dose screen (10 μM), Melanoma; format: cell-based; details: Homo sapiens
# HCT-15 = assay: NCI60 one-dose screen (10 μM), Colon Cancer; format: cell-based; details: Homo sapiens
# LOX IMVI = assay: NCI60 one-dose screen (10 μM), Melanoma; format: cell-based, human; details: Homo sapiens, LOX IMVI, read-out: Growth percent rate
# EKVX = assay: NCI60 one-dose screen (10 μM), Non-small Cell Lung Cancer; format: cell-based; details: Homo sapiens, read-out: Growth percent rate
# COLO 205 = assay: NCI60 one-dose screen (10 μM), Colon Cancer; format: cell-based, human; details: Homo sapiens
# MDA-MB-435 = assay: NCI60 one-dose screen (10 μM), Melanoma; format: cell-based; details: Homo sapiens
# IGROV1 = assay: NCI60 one-dose screen (10 μM), Ovarian Cancer; format: cell-based; details: Homo sapiens
# HS 578T = assay: NCI60 one-dose screen (10 μM), Breast Cancer; format: cell-based; details: Homo sapiens, read-out: Growth percent rate
# SK-MEL-5 = assay: NCI60 one-dose screen (10 μM), Melanoma; format: cell-based, human; details: Homo sapiens
# ACHN = assay: NCI60 one-dose screen (10 μM), Renal Cancer; format: cell-based; details: Homo sapiens, read-out: Growth percent rate
# RXF 393 = assay: NCI60 one-dose screen (10 μM), Renal Cancer; format: cell-based, human; details: Homo sapiens
# OVCAR-4 = assay: NCI60 one-dose screen (10 μM), Ovarian Cancer; format: cell-based; details: Homo sapiens
# [1] = test system: 60 human tumor cell lines (NCI60); assay: NCI60 one-dose screen (10 μM), whole panel; format: cell-based; details: for activity at 10 µM: read-out: Growth percent rate, Mean
# MALME-3M = assay: NCI60 one-dose screen (10 μM), Melanoma; format: cell-based; details: Homo sapiens, read-out: Growth percent rate
# HT29 = assay: NCI60 one-dose screen (10 μM), Colon Cancer; format: cell-based; details: Homo sapiens
# SN12C = assay: NCI60 one-dose screen (10 μM), Renal Cancer; format: cell-based; details: Homo sapiens, read-out: Growth percent rate
# CAKI-1 = assay: NCI60 one-dose screen (10 μM), Renal Cancer; format: cell-based; details: Homo sapiens
# NCI-H322M = assay: NCI60 one-dose screen (10 μM), Non-small Cell Lung Cancer; format: cell-based; details: Homo sapiens, read-out: Growth percent rate
# A549/ATCC = assay: as above; format: cell-based; details: Homo sapiens
# RPMI-8226 = assay: NCI60 one-dose screen (10 μM), Leukemia; format: cell-based; details: Homo sapiens
# M14 = assay: NCI60 one-dose screen (10 μM), Melanoma; format: cell-based; details: Homo sapiens
# MOLT-4 = assay: NCI60 one-dose screen (10 μM), Leukemia; format: cell-based, human; details: Homo sapiens
# HOP-62 = assay: NCI60 one-dose screen (10 μM), Non-small Cell Lung Cancer; format: cell-based; details: Homo sapiens
# SF-295 = assay: NCI60 one-dose screen (10 μM), CNS Cancer; format: cell-based; details: Homo sapiens
# SF-268 = assay: NCI60 one-dose screen (10 μM), CNS Cancer; format: cell-based; details: Homo sapiens
# [2] = 10 μM, Non-small Cell Lung Cancer
structure (smiles),measurement,setting,value
CC[C@]12C=CCN3CC[C@@]4(c5ccc(OC)cc5N(C)[C@H]4[C@@](O)(C(=O)OC)[C@@H]1OC(=O)CCCN1CCN(C(c4ccc(F)cc4)c4ccc(F)cc4)CC1)[C@@H]32 [Compound 25],activity at 10 µM,"K-562; K562, read-out: Growth percent rate",-1.7%
same,activity at 10 µM,"OVCAR-8; OVCAR-8, read-out: Growth percent rate",-69.3%
same,activity at 10 µM,"SW-620; SW-620, read-out: Growth percent rate",-78.5%
same,activity at 10 µM,"A498; A498, read-out: Growth percent rate",-97.2%
same,activity at 10 µM,"SF-539; SF-539, read-out: Growth percent rate",-98.5%
same,activity at 10 µM,"U251; U-251, read-out: Growth percent rate",-79%
same,activity at 10 µM,"HL-60(TB); HL-60, read-out: Growth percent rate",-56.2%
same,activity at 10 µM,"NCI-H522; NCI-H522, read-out: Growth percent rate",-88.2%
same,activity at 10 µM,"HCC-2998; HCC 2998, read-out: Growth percent rate",-97.2%
same,activity at 10 µM,"HCT-116; HCT-116, read-out: Growth percent rate",-98.6%
same,activity at 10 µM,"SNB-19; SNB-19, read-out: Growth percent rate",-93.6%
same,activity at 10 µM,"TK-10; TK-10, read-out: Growth percent rate",-90.4%
same,activity at 10 µM,"NCI-H460; NCI-H460, read-out: Growth percent rate",-70.4%
same,activity at 10 µM,"786–0; 786-0, read-out: Growth percent rate",-96.4%
same,activity at 10 µM,"NCI-H23; NCI-H23, read-out: Growth percent rate",-92.7%
same,activity at 10 µM,"UACC-257; UACC-257, read-out: Growth percent rate",-78.2%
same,activity at 10 µM,"MCF7; MCF7, read-out: Growth percent rate",-88.2%
same,activity at 10 µM,"SK-MEL-28; SK-MEL-28, read-out: Growth percent rate",-96.5%
same,activity at 10 µM,"HCT-15; HCT-15, read-out: Growth percent rate",-96.6%
same,activity at 10 µM,LOX IMVI,-98.8%
same,activity at 10 µM,EKVX,-89.8%
same,activity at 10 µM,"COLO 205; COLO 205, read-out: Growth percent rate",-78.5%
same,activity at 10 µM,"MDA-MB-435; MDA-MB-435, read-out: Growth percent rate",-78.7%
same,activity at 10 µM,"IGROV1; IGROV-1, read-out: Growth percent rate",-77%
same,activity at 10 µM,HS 578T; Hs-578T,-60%
same,activity at 10 µM,"SK-MEL-5; SK-MEL-5, read-out: Growth percent rate",-99.6%
same,activity at 10 µM,ACHN,-69.4%
same,activity at 10 µM,"RXF 393; RXF 393, read-out: Growth percent rate",-94.5%
same,activity at 10 µM,"OVCAR-4; OVCAR-4, read-out: Growth percent rate",-41.5%
same,growth rate,"[1]; 10 μM one-dose, on almost all tested cancer types and cell lines, negative = lethality",< −60%
same,activity at 10 µM,[1]; Homo sapiens,-79.9%
same,activity at 10 µM,MALME-3M; Malme-3M,-91%
same,activity at 10 µM,"HT29; HT-29, read-out: Growth percent rate",-83.9%
same,activity at 10 µM,SN12C,-95%
same,activity at 10 µM,"CAKI-1; CAKI-1, read-out: Growth percent rate",-86.2%
same,activity at 10 µM,NCI-H322M,-71.7%
same,activity at 10 µM,"A549/ATCC; A549, read-out: Growth percent rate",-65.4%
same,activity at 10 µM,"RPMI-8226; RPMI-8226, read-out: Growth percent rate",-50.1%
same,activity at 10 µM,"M14; M14, read-out: Growth percent rate",-94.8%
same,activity at 10 µM,"MOLT-4; MOLT-4, read-out: Growth percent rate",-31.9%
same,activity at 10 µM,"HOP-62; HOP-62, read-out: Growth percent rate",-77.2%
same,activity at 10 µM,"SF-295; SF-295, read-out: Growth percent rate",-91%
same,activity at 10 µM,"SF-268; SF-268, read-out: Growth percent rate",-81.9%
CC[C@]12C=CCN3CC[C@@]4(c5ccc(OC)cc5N(C)[C@H]4[C@@](O)(C(=O)OC)[C@@H]1OC(=O)CCCN1CCN(C(=O)c4ccco4)CC1)[C@@H]32 [Compound 26],activity at 10 µM,"K-562; K562, 10 μM, K-562, Leukemia, read-out: Growth percent rate",76.7%
same,activity at 10 µM,"OVCAR-8; 10 μM, OVCAR-8, Ovarian Cancer, read-out: Growth percent rate",104%
same,activity at 10 µM,"SW-620; 10 μM, SW-620, Colon Cancer, read-out: Growth percent rate",112%
same,activity at 10 µM,"A498; 10 μM, A498, Renal Cancer, read-out: Growth percent rate",107%
same,activity at 10 µM,"SF-539; 10 μM, SF-539, CNS Cancer, read-out: Growth percent rate",101%
same,activity at 10 µM,"U251; U-251, 10 μM, U251, CNS Cancer, read-out: Growth percent rate",93.4%
same,activity at 10 µM,"HL-60(TB); 10 μM, HL-60(TB), Leukemia, read-out: Growth percent rate",93.8%
same,activity at 10 µM,"NCI-H522; 10 μM, NCI-H522, Non-small Cell Lung Cancer, read-out: Growth percent rate",91.6%
same,activity at 10 µM,"HCC-2998; 10 μM, HCC-2998, Colon Cancer, read-out: Growth percent rate",106%
same,activity at 10 µM,"HCT-116; 10 μM, HCT-116, Colon Cancer, read-out: Growth percent rate",104%
same,activity at 10 µM,"SNB-19; 10 μM, SNB-19, CNS Cancer, read-out: Growth percent rate",94.4%
same,activity at 10 µM,"TK-10; 10 μM, TK-10, Renal Cancer, read-out: Growth percent rate",104%
same,activity at 10 µM,"NCI-H460; 10 μM, NCI-H460, Non-small Cell Lung Cancer, read-out: Growth percent rate",112%
same,activity at 10 µM,"786–0; 10 μM, 786-0, Renal Cancer, read-out: Growth percent rate",94.2%
same,activity at 10 µM,"NCI-H23; 10 μM, NCI-H23, Non-small Cell Lung Cancer, read-out: Growth percent rate",109%
same,activity at 10 µM,"UACC-257; 10 μM, UACC-257, Melanoma, read-out: Growth percent rate",101%
same,activity at 10 µM,"MCF7; 10 μM, MCF7, Breast Cancer, read-out: Growth percent rate",88.7%
same,activity at 10 µM,"SK-MEL-28; 10 μM, SK-MEL-28, Melanoma, read-out: Growth percent rate",105%
same,activity at 10 µM,"HCT-15; 10 μM, HCT-15, Colon Cancer, read-out: Growth percent rate",98.8%
same,activity at 10 µM,"LOX IMVI; 10 μM, Melanoma",96.6%
same,activity at 10 µM,EKVX; [2],87.8%
same,activity at 10 µM,"COLO 205; 10 μM, COLO 205, Colon Cancer, read-out: Growth percent rate",99.7%
same,activity at 10 µM,"MDA-MB-435; 10 μM, MDA-MB-435, Melanoma, read-out: Growth percent rate",104%
same,activity at 10 µM,"IGROV1; IGROV-1, 10 μM, IGROV1, Ovarian Cancer, read-out: Growth percent rate",109%
same,activity at 10 µM,"HS 578T; 10 μM, HS 578T, Breast Cancer",96.1%
same,activity at 10 µM,"SK-MEL-5; 10 μM, SK-MEL-5, Melanoma, read-out: Growth percent rate",75.6%
same,activity at 10 µM,"ACHN; 10 μM, Renal Cancer",103%
same,activity at 10 µM,"RXF 393; 10 μM, RXF 393, Renal Cancer, read-out: Growth percent rate",102%
same,activity at 10 µM,"OVCAR-4; 10 μM, OVCAR-4, Ovarian Cancer, read-out: Growth percent rate",94%
same,activity at 10 µM,"[1]; 10 μM, mean over 60 human cancer cell lines",96.8%
same,activity at 10 µM,"MALME-3M; 10 μM, MALME-3M, Melanoma",102%
same,activity at 10 µM,"HT29; HT-29, 10 μM, HT29, Colon Cancer, read-out: Growth percent rate",103%
same,activity at 10 µM,"SN12C; 10 μM, Renal Cancer",103%
same,activity at 10 µM,"CAKI-1; 10 μM, CAKI-1, Renal Cancer, read-out: Growth percent rate",79.8%
same,activity at 10 µM,NCI-H322M; [2],108%
same,activity at 10 µM,"A549/ATCC; 10 μM, A549/ATCC, Non-small Cell Lung Cancer, read-out: Growth percent rate",92.7%
same,activity at 10 µM,"RPMI-8226; 10 μM, RPMI-8226, Leukemia, read-out: Growth percent rate",69.2%
same,activity at 10 µM,"M14; 10 μM, M14, Melanoma, read-out: Growth percent rate",101%
same,activity at 10 µM,"MOLT-4; 10 μM, MOLT-4, Leukemia, read-out: Growth percent rate",77.3%
same,activity at 10 µM,"HOP-62; 10 μM, HOP-62, Non-small Cell Lung Cancer, read-out: Growth percent rate",107%
same,activity at 10 µM,"SF-295; 10 μM, SF-295, CNS Cancer, read-out: Growth percent rate",89.5%
same,activity at 10 µM,"SF-268; 10 μM, SF-268, CNS Cancer, read-out: Growth percent rate",97.3%
